According to PMC4503722, “Novel Phenotypic Outcomes Identified for a Public Collection of Approved Drugs from a Publicly Accessible Panel of Assays” (PLoS ONE, 2015):

Columns and labels:
[1] = test system: endothelial tube formation in co-cultures of ECFCs and ADSCs treated with VEGF; experiment: cells; format: cell-based, human
[2] = test system: nuclear β-catenin in C2C12 cells; experiment: cells; format: cell-based; conditions: concentration response; for WntCondMedia_bCatenin C2C12 IC50/EC50: assay number 5
[3] = test system: alkaline phosphatase (ALP) activity in C2C12 cells; format: cell-based; conditions: concentration response; for WntCondMedia_Alk Phos C2C12 IC50/EC50: assay number 6
HeLa cells = experiment: cells; format: cell-based; conditions: for Hela CellCycMod PI 2N IC50/EC50: assay number 14; for Hela CellCycMod PI 4N IC50/EC50: assay number 16; for Hela CellCycMod PI MI IC50/EC50: assay number 17; for Hela CellCycMod PI Cell Number IC50/EC50: assay number 18; for Hela CellCycMod PI S Phase IC50/EC50: assay number 15
DLD-1 = experiment: cells; format: cell-based; conditions: assay number 23
HCT116 = experiment: cells; format: cell-based; conditions: basal; for Basal_Viability ATP HCT116 IC50/EC50: assay number 25
[4] = test system: HCT116 cells treated with a GSK3β inhibitor; experiment: cells; format: cell-based; conditions: assay number 26; GSK3b inhibitor pretreated
HT-29 = experiment: cells; format: cell-based; conditions: for Basal_Viability ATP HT-29 IC50/EC50: assay number 28
RKO = experiment: cells; format: cell-based; conditions: for Basal_Viability ATP RKO IC50/EC50: assay number 29
SNU-C1 = experiment: cells; format: cell-based; conditions: for Basal_Viability ATP SNU-C1 IC50/EC50: assay number 30
hp70S6K1 (RPS6KB1) = biological target: T1, hp70S6K1 (RPS6KB1) (Homo sapiens, UniProt P23443); experiment: Cerep LANCE kinase assay hp70S6K1 (S1 assay 31); format: biochemical; conditions: for hp70S6K1 LANCE IC50/EC50: assay number 31
T1 construct: purchased Cerep (LANCE kinase assay platform, contract assay)
T1 sequence (P23443 whole entry): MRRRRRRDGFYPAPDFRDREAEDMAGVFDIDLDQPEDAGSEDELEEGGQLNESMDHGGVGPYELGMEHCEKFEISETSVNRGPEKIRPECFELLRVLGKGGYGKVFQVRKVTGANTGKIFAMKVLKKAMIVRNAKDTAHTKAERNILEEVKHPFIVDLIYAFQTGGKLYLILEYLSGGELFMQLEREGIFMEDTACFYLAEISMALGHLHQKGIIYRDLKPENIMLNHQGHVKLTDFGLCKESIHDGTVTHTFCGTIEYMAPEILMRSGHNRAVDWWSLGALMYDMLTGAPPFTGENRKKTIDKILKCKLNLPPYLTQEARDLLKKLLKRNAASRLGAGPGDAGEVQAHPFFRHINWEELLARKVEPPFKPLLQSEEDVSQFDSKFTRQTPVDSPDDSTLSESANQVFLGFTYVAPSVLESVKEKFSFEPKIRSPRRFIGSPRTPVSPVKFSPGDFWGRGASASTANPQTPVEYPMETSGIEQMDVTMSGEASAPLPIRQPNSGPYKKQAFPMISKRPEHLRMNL

hKDR = biological target: T2, hKDR (Homo sapiens, UniProt P35968); experiment: Cerep LANCE kinase assay hKDR (S1 assay 32); format: biochemical; conditions: for hKDR LANCE IC50/EC50: assay number 32
T2 construct: purchased Cerep (LANCE kinase assay platform, contract assay)
T2 sequence (P35968 20-1356): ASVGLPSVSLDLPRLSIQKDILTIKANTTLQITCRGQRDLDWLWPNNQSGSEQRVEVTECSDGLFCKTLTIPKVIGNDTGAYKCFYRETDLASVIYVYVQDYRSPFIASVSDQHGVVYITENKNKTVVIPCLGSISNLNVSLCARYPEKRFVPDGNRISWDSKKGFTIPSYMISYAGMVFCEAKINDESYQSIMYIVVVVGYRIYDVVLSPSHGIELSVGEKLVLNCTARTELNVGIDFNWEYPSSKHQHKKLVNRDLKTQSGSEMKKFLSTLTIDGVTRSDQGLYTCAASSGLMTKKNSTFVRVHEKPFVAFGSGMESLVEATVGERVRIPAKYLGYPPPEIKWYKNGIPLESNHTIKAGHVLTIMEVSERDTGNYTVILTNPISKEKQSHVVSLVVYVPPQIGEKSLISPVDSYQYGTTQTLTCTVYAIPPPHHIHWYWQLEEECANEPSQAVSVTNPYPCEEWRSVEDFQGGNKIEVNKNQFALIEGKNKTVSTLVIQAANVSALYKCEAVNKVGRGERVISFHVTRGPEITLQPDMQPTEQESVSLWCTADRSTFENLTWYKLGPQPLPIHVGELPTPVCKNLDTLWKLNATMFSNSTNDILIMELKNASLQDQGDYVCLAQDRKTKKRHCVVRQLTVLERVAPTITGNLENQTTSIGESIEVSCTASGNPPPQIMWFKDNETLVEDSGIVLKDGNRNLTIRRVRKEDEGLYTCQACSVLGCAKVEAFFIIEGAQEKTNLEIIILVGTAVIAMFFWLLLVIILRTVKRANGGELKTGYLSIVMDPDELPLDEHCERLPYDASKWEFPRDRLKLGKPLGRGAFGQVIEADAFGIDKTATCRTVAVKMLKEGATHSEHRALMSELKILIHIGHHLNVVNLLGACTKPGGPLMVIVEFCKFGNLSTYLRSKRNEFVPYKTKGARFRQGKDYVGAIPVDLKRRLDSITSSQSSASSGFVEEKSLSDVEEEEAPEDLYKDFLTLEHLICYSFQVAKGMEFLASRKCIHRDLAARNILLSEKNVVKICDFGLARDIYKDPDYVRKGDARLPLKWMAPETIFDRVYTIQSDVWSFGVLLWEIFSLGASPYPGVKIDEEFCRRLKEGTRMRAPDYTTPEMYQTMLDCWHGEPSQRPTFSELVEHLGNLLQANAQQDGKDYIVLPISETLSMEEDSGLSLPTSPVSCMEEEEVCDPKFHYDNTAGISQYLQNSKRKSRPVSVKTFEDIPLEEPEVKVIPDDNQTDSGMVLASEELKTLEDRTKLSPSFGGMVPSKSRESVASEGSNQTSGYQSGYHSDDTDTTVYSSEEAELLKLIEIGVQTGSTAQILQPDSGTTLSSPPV

hJAK2 = biological target: T3, hJAK2 (Homo sapiens, UniProt O60674); experiment: Cerep LANCE kinase assay hJAK2 (S1 assay 33); format: biochemical; conditions: for hJAK2 LANCE IC50/EC50: assay number 33
T3 construct: purchased Cerep (LANCE kinase assay platform, contract assay)
T3 sequence (O60674 whole entry): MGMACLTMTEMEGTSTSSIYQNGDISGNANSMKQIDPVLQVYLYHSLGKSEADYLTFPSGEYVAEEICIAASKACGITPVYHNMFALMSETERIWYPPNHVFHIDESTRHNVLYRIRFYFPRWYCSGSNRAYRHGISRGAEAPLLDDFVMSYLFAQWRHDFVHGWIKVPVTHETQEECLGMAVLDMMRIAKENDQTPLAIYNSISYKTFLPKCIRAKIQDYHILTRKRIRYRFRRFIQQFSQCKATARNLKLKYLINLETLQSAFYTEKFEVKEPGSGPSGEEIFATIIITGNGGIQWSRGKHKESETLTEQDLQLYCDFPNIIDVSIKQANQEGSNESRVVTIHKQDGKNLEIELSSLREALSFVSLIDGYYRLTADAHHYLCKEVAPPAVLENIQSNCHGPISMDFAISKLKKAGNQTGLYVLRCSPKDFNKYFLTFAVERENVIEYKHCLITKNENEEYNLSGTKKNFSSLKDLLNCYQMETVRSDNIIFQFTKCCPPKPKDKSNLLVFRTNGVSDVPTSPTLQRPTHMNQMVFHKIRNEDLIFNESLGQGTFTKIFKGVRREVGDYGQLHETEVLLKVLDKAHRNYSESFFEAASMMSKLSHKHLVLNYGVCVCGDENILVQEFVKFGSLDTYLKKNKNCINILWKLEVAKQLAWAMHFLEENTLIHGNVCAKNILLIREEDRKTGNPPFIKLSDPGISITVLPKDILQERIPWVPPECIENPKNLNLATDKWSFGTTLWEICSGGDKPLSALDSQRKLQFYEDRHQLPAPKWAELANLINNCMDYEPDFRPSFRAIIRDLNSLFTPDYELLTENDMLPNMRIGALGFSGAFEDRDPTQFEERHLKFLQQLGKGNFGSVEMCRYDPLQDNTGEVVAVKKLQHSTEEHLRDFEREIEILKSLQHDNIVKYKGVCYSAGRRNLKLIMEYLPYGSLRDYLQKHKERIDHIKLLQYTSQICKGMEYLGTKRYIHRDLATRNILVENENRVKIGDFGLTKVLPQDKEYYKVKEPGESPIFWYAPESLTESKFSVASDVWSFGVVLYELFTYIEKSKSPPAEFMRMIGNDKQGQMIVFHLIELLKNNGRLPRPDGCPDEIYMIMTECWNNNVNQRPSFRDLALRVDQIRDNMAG

hGSK3b = biological target: T4, hGSK3b (Homo sapiens, UniProt P49841); experiment: Cerep LANCE kinase assay hGSK3b (S1 assay 34); format: biochemical; conditions: for hGSK3b LANCE IC50/EC50: assay number 34
T4 construct: purchased Cerep (LANCE kinase assay platform, contract assay)
T4 sequence (P49841 whole entry): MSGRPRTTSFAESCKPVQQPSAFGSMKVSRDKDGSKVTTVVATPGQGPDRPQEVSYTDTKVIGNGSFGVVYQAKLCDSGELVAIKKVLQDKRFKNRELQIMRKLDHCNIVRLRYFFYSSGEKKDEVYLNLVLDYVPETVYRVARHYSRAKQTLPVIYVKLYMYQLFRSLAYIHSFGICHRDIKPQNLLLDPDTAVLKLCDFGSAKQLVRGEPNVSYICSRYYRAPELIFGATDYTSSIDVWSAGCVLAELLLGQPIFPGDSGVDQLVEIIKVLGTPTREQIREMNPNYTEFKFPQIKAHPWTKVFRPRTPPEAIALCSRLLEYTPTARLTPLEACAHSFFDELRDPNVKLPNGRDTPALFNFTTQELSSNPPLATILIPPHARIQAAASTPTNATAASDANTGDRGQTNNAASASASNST

hFLT3 = biological target: T5, hFLT3 (Homo sapiens, UniProt P36888); experiment: Cerep LANCE kinase assay hFLT3 (S1 assay 35); format: biochemical; conditions: for hFLT3 LANCE IC50/EC50: assay number 35
T5 construct: purchased Cerep (LANCE kinase assay platform, contract assay)
T5 sequence (P36888 27-993): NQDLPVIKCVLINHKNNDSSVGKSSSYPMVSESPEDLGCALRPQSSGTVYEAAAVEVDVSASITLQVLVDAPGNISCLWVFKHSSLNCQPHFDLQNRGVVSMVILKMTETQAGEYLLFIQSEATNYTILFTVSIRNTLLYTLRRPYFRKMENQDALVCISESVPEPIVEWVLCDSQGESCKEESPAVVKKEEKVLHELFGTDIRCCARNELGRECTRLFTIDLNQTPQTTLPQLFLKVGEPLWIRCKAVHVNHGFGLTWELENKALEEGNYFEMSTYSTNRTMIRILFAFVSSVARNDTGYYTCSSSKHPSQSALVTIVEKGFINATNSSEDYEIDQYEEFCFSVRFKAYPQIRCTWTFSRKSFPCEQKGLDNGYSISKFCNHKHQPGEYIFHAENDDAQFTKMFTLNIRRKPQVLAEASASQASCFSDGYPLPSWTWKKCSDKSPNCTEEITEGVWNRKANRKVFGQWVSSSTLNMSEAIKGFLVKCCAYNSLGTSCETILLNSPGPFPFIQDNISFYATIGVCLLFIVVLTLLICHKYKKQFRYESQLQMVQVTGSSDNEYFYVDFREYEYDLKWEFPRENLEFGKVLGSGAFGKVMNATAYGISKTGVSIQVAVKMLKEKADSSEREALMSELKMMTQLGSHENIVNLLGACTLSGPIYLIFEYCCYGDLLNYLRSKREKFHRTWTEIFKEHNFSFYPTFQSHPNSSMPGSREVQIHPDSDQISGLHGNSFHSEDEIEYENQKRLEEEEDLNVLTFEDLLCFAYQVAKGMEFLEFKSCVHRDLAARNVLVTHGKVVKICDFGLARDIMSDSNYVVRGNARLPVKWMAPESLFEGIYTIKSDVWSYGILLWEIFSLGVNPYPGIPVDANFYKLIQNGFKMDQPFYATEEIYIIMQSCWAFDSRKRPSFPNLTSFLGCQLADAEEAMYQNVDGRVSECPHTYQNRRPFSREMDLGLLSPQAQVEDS

[5] = test system: ECFC/ADSC co-culture cell nuclei number
SW480 = experiment: cells; format: cell-based; conditions: basal
Colo320 = experiment: cells; format: cell-based; conditions: for Basal_Viability ATP Colo 320 IC50/EC50: assay number 27

SMILES | VEGF_ADSC\ECFC Angio CD31 TubeArea IC50/EC50 [1] [µM] | WntCondMedia_bCatenin C2C12 IC50/EC50 [2] [µM] | WntCondMedia_Alk Phos C2C12 IC50/EC50 [3] [µM] | Hela CellCycMod PI 2N IC50/EC50 (HeLa cells; 2N) [µM] | Hela CellCycMod PI 4N IC50/EC50 (HeLa cells; 4N) [µM] | Hela CellCycMod PI MI IC50/EC50 (HeLa cells; MI) [µM] | Hela CellCycMod PI Cell Number IC50/EC50 (HeLa cells) [µM] | Basal_Viability ATP HCT116 IC50/EC50 (HCT116) [µM] | GSK3b inh pretreated_Viability ATP HCT116 IC50/EC50 [4] [µM] | Basal_Viability ATP HT-29 IC50/EC50 (HT-29) [µM] | Basal_Viability ATP RKO IC50/EC50 (RKO) [µM] | Basal_Viability ATP SNU-C1 IC50/EC50 (SNU-C1) [µM] | hp70S6K1 LANCE IC50/EC50 (hp70S6K1 (RPS6KB1)) [µM] | hKDR LANCE IC50/EC50 (hKDR) [µM] | hJAK2 LANCE IC50/EC50 (hJAK2) [µM] | hGSK3b LANCE IC50/EC50 (hGSK3b) [µM] | hFLT3 LANCE IC50/EC50 (hFLT3) [µM] | VEGF_ADSC\ECFC Angio Hoechst NucArea IC50/EC50 [5] [µM] | Hela CellCycMod PI S Phase IC50/EC50 (HeLa cells) [µM] | other results
CC(C)C[C@H](NC(=O)[C@H](CCc1ccccc1)NC(=O)CN1CCOCC1)C(=O)N[C@@H](Cc1ccccc1)C(=O)N[C@@H](CC(C)C)C(=O)[C@@]1(C)CO1 [NCGC00249613-02] | 0.0204 | 0.0292 | 0.0152 | > 10 | > 10 | > 10 | 0.0099 | 0.00558 | 0.00173 | 0.00318 | 0.00394 | 0.00147 | > 20 | > 20 | > 20 | > 20 | > 20 | 0.2852 |  | Basal_Viability ATP DLD-1 IC50/EC50 (DLD-1): 0.00696 µM
Cc1nc(N)nc(N)c1-c1ccc(Cl)c(Cl)c1 [NCGC00253626-01] |  | 0.0504 | 0.0299 | > 10 | > 10 | > 10 | 1.0068 | 0.4134 | 0.05888 |  |  |  | > 20 | > 20 | > 20 | > 20 | > 20 |  | > 10 | Basal_Viability ATP DLD-1 IC50/EC50 (DLD-1; basal): 0.6337 µM; Basal_Viability ATP SW480 IC50/EC50 (SW480; assay number 24): 0.512 µM; Basal_Viability ATP Colo 320 IC50/EC50 (Colo320; basal): 2.03 µM; Basal_Viability ATP HT-29 IC50/EC50 (HT-29; basal): 0.9316 µM; Basal_Viability ATP RKO IC50/EC50 (RKO; basal): 0.1171 µM; Basal_Viability ATP SNU-C1 IC50/EC50 (SNU-C1; basal): 2.165 µM
COC(=O)Nc1nc2ccc(C(=O)C3CC3)cc2[nH]1 [NCGC00262953-01] |  |  |  |  |  |  |  |  |  |  |  |  |  |  |  |  |  |  |  | IC50/EC50, VEGF_ADSC\ECFC Angio CD31 TubeArea (assay number 2) [1]: 1.1914 µM; IC50/EC50, WntCondMedia_bCatenin C2C12 (assay number 5) [2]: 0.3486 µM; IC50/EC50, WntCondMedia_Alk Phos C2C12 (assay number 6) [3]: 0.6836 µM; IC50/EC50, Hela CellCycMod PI 2N (assay number 14) (HeLa cells; 2N): 0.4173 µM; IC50/EC50, Hela CellCycMod PI 4N (assay number 16) (HeLa cells; 4N): 0.4164 µM; IC50/EC50, Hela CellCycMod PI Cell Number (assay number 18) (HeLa cells; Cell Number): 0.2969 µM; IC50/EC50, Hela CellCycMod PI MI (assay number 17) (HeLa cells; MI): 0.4024 µM; IC50/EC50, Hela CellCycMod PI S Phase (assay number 15) (HeLa cells; S Phase): > 10 µM; IC50/EC50, Basal_Viability ATP SW480 (assay number 24) (SW480): > 20 µM; IC50/EC50, Basal_Viability ATP HCT116 (assay number 25) (HCT116): 0.1735 µM; IC50/EC50, Basal_Viability ATP Colo 320 (assay number 27) (Colo320; basal): 0.1556 µM; IC50/EC50, Basal_Viability ATP HT-29 (assay number 28) (HT-29; basal): 1.6823 µM; IC50/EC50, Basal_Viability ATP RKO (assay number 29) (RKO; basal): 0.1622 µM; IC50/EC50, Basal_Viability ATP SNU-C1 (assay number 30) (SNU-C1; basal): > 20 µM; IC50/EC50, hp70S6K1 LANCE (assay number 31) (hp70S6K1 (RPS6KB1)): > 20 µM; IC50/EC50, hKDR LANCE (assay number 32) (hKDR): 15.14 µM; IC50/EC50, hJAK2 LANCE (assay number 33) (hJAK2): > 20 µM; IC50/EC50, hGSK3b LANCE (assay number 34) (hGSK3b): 14.94 µM; IC50/EC50, hFLT3 LANCE (assay number 35) (hFLT3): 6.14 µM; IC50/EC50, VEGF_ADSC\ECFC Angio Hoechst NucArea (assay number 3) [5]: > 10 µM
CC[C@]1(O)C[C@@H]2CN(CCc3c([nH]c4ccccc34)[C@@](C(=O)OC)(c3cc4c(cc3OC)N(C)[C@H]3[C@@](O)(C(=O)OC)[C@H](OC(C)=O)[C@]5(CC)C=CCN6CC[C@]43[C@@H]65)C2)C1.O=S(=O)(O)O [NCGC00263548-01] | 0.0023 | 0.0058 | 0.0089 | 0.0033 | 0.0032 | 0.0032 | 0.0026 | 0.001 | 0.001 | 0.001 | 0.001 | > 20 | > 20 | > 20 | > 20 | > 20 | > 20 | > 10 | > 10 | Basal_Viability ATP Colo 320 IC50/EC50 (Colo320): 0.001 µM
